According to patent publication US10226471B2, “Modified-release dosage forms of 5-HT2C agonists useful for weight management” (Arena Pharmaceuticals, Inc., priority 2010, dated 2019):

Test: Dynamic moisture-sorption (DMS)
Assay type: physicochemical
Details: for hygroscopicity by DMS: isotherm 25° C.
Protocol: Dynamic moisture-sorption (DMS) studies were conducted using a dynamic moisture-sorption analyzer, VTI Corporation, SGA-100, equipment #0228. Samples were prepared for DMS analysis by placing 5 mg to 20 mg of a sample in a tared sample holder. The sample was placed on the hang-down wire of the VTI balance. A drying step was run, typically at 40° C. and 0.5-1% RH for 1-2 h. The isotherm temperature is 25° C. Defined % RH holds typically ranged from 10% RH to 90% RH or 95% RH, with intervals of 10 to 20% RH. A % weight change smaller than 0.010% over a specified number of minutes (typically 10-20), or up to 2 h, whichever occurs first, is required before continuing to the next % RH hold. The water content of the sample equilibrated as described above was determined at each % RH hold.

[1] = out to and including the 90% RH hold at 25° C.

| SMILES | hygroscopicity by DMS | hygroscopicity by DMS (listed as Compound 1 Hydrochloride Salt Hemihydrate, Form III) | water adsorbed in DMS [1] | DMS weight gain at 90% RH [1] | DMS weight gain at 90% RH (out to and including the 90% RH hold at 25° C., Form I) |
| --- | --- | --- | --- | --- | --- |
| C[C@H]1CNCCc2ccc(Cl)cc21.C[C@H]1CNCCc2ccc(Cl)cc21.Cl.Cl.O | substantially non-hygroscopic | FIG. 4: non-hygroscopic | less than 0.5 wt % | – | – |
| C[C@H]1CNCCc2ccc(Cl)cc21.C[C@H]1CNCCc2ccc(Cl)cc21.O=S(=O)(O)c1cccc2c(S(=O)(=O)O)cccc12 [Compound 1 heminapadisilate salt] | non-hygroscopic | – | – | about 0.68% | FIG. 31: ~0.68% weight gain at about 90% RH |
